# Results from PubChem BioAssay AID651856 (Broad Institute, 2012).
# Tested on: non-replicating M. tuberculosis, luciferase expression
# Experiment: non-replicating M. tuberculosis inhibition, confirmation, luciferase expression (AID 651856)
row,SMILES,IC90 [µM]
1,O=S(Cc1cn(Cc2ccccc2)nn1)c1nnc(-c2ccc(Cl)cc2)o1 (stereo not drawn),1
2,O=S(=O)(Cc1ccccc1)c1nnc(-c2ccccc2)o1,4
3,Clc1ccc(-c2nnc(SCc3cn(Cc4ccccc4)nn3)o2)cc1,4
4,O=S(=O)(Cc1cn(Cc2ccccc2)nn1)c1nnc(-c2ccc(Cl)cc2)o1,8
5,O=S(Cc1ccccc1)c1nnc(-c2ccccc2)o1 (stereo not drawn),1
6,c1ccc(CSc2nnc(-c3ccccc3)o2)cc1,16
7,Fc1ccc(Cn2cc(CSc3nnc(-c4ccc(Cl)cc4)o3)nn2)cc1,2
8,O=S(Cc1cn(Cc2ccc(F)cc2)nn1)c1nnc(-c2ccc(Cl)cc2)o1 (stereo not drawn),4
